Source: ChEMBL document CHEMBL1129077 (J Med Chem, 1996)

What was measured:
[1] = target: T1, Transient receptor potential cation channel subfamily V member 1 (Rattus norvegicus, UniProt O35433); experiment: Displacement of [3H]RTX from Vanilloid receptor in Rat spinal cord membranes; type: cell membranes, Membrane
[2] = target: T2, Transient receptor potential cation channel subfamily V member 1 (Homo sapiens, UniProt Q8NER1); experiment: Effect on cooperativity of Resiniferatoxin (RTX) binding (Hill coefficient); type: functional
[3] = target: T1, Transient receptor potential cation channel subfamily V member 1; experiment: Inhibitory constant for RTX binding to rat spinal cord; type: functional
Rattus norvegicus = experiment: Desensitisation against RTX-induced ear edema formation 24 hr r post-administration; type: functional
[4] = target: T1, Transient receptor potential cation channel subfamily V member 1; experiment: Inhibition of [3H]- RTX binding to vanilloid receptor of rat urinary bladder; type: functional
[5] = target: T2, Transient receptor potential cation channel subfamily V member 1; experiment: Inhibition of [3H]- RTX binding to Vanilloid receptors from human spinal cord
[6] = target: T2, Transient receptor potential cation channel subfamily V member 1; experiment: Inhibitory constant for RTX binding to human spinal cord; type: functional, tissue-based
[7] = target: T1, Transient receptor potential cation channel subfamily V member 1; experiment: Displacement of [3H]RTX binding from Vanilloid receptor of rat dorsal Root Ganglion (DRG) membranes; type: cell membranes, Membrane
[8] = The effect on the Cooperativity of Resiniferatoxin binding, as Quantitated by the Hill Coefficients.

T1 sequence (O35433 whole entry): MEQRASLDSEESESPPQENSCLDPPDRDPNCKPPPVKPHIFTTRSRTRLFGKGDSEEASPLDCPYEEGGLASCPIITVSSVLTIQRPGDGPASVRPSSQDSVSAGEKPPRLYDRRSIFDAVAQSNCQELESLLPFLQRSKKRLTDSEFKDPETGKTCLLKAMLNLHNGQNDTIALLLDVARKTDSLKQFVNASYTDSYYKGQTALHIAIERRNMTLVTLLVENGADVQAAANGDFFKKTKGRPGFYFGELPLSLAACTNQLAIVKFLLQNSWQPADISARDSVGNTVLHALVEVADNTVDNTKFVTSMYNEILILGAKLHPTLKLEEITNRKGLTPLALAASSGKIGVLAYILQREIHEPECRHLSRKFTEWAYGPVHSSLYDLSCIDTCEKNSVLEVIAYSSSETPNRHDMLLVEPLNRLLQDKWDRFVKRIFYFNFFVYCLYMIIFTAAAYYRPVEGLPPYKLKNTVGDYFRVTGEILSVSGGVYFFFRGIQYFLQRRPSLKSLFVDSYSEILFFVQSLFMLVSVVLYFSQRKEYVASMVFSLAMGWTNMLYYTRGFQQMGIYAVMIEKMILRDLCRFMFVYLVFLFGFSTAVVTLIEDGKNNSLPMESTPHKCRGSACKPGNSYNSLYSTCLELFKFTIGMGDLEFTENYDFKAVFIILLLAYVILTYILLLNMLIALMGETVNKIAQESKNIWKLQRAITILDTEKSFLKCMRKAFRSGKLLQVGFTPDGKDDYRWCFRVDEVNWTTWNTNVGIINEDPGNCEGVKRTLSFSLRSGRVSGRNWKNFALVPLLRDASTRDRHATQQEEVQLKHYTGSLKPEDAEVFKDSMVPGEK
T2 sequence (Q8NER1 whole entry): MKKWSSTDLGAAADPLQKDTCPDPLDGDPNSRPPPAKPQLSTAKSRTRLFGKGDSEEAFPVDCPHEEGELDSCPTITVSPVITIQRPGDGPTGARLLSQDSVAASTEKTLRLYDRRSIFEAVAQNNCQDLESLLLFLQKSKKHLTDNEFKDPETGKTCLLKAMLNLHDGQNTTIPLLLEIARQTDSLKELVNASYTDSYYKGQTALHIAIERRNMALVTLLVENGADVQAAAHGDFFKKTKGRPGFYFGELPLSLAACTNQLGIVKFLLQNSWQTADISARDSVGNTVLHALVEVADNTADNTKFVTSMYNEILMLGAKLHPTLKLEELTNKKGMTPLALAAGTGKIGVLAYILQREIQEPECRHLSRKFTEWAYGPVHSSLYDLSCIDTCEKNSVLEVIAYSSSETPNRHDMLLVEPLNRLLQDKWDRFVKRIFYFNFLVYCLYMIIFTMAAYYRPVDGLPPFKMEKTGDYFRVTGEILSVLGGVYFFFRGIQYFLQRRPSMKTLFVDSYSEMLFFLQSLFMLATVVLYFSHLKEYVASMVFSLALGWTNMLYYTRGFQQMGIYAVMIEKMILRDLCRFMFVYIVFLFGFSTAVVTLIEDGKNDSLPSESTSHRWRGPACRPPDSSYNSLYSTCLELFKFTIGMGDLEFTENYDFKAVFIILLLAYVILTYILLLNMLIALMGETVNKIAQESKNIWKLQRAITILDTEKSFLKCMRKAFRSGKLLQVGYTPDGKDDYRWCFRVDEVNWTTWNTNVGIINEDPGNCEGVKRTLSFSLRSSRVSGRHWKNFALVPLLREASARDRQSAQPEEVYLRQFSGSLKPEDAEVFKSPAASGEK

SMILES | Ki [1] | Hill coefficient [2] | other results
COc1cc(CC(=O)OCC2=C[C@H]3[C@@H]4C(C)(C)[C@]4(OC(C)=O)[C@H](OC(=O)c4ccccc4)[C@@H](C)[C@]3(O)[C@@H]3C=C(C)C(=O)[C@@]3(O)C2)ccc1O | 400 nM | 1.7 | 
COc1cc(CC(=O)OCC2=C[C@H]3[C@@H]4C(C)(C)[C@]4(OC(C)=O)[C@H](OC(=O)Cc4ccccc4)[C@@H](C)[C@]3(O)[C@@H]3C=C(C)C(=O)[C@@]3(O)C2)ccc1O |  | 1.1 | Ki [3]: 0.054 nM; ED50 (Rattus norvegicus): 10 mg/kg; Ki [4]: 2000 nM; Ki [5]: 6.4 µM; Ki [6]: 0.45 nM; Ki [7]: 600 nM
COc1cc(CC(=O)OCC2=C[C@H]3[C@@H]4C(C)(C)[C@]4(OC(C)=O)[C@H](OC(=O)Cc4ccccc4)[C@@H](C)[C@]3(O)[C@@H]3C=C(C)[C@H](O)[C@@]3(O)C2)ccc1O | > 10000 nM |  | 
COc1cc(CC(=O)OCC2=C[C@H]3[C@@H]4C(C)(C)[C@]4(OC(C)=O)[C@H](OC(=O)C4CCCCC4)[C@@H](C)[C@]3(O)[C@@H]3C=C(C)C(=O)[C@@]3(O)C2)ccc1O | 2200 nM | 1 | 
Oc1cc2c(cc1O)CN(C(=S)NCCc1ccc(Cl)cc1)CCC2 [CAPSAZEPINE] | 1200 nM | 2.4 | 
COc1cc(CC(=O)OCC2=C[C@H]3[C@@H]4C(C)(C)[C@]4(OC(C)=O)[C@H](OC(=O)c4ccc(N=[N+]=[N-])cc4)[C@@H](C)[C@]3(O)[C@@H]3C=C(C)C(=O)[C@@]3(O)C2)ccc1O | 200 nM | 1.5 | 
COc1cc(CNC(=O)CCCC/C=C/C(C)C)ccc1O |  | 2 | 
COc1cc(CC(=O)OCC2=C[C@H]3[C@@H]4C(C)(C)[C@]4(OC(C)=O)[C@H](OC(=O)Cc4ccccc4)[C@@H](C)[C@]3(O)[C@@H]3C=C(C)C(=O)[C@@]3(O)C2)ccc1OC(C)=O | 1700 nM | 1 | 
COc1cc(CC(=O)OCC2=C[C@H]3[C@@H]4C(C)(C)[C@]4(OC(=O)Cc4ccccc4)[C@H](OC(=O)Cc4ccccc4)[C@@H](C)[C@]3(O)[C@@H]3C=C(C)C(=O)[C@@]3(O)C2)ccc1O | 300 nM | 1.3 | 
COc1cc(CC(=O)OCC2=C[C@H]3[C@@H]4C(C)(C)[C@]4(OC(=O)Cc4ccccc4)C(=O)[C@@H](C)[C@]3(O)[C@@H]3C=C(C)C(=O)[C@@]3(O)C2)ccc1O | 1300 nM | 0.9 | 
COc1cc(CC(=O)OCC2=C[C@H]3[C@@H]4C(C)(C)[C@]4(OC(C)=O)[C@H](OC(=O)Cc4ccc(N=[N+]=[N-])cc4)[C@@H](C)[C@]3(O)[C@@H]3C=C(C)C(=O)[C@@]3(O)C2)ccc1O | 200 nM | 1.4 | 
COc1cc(CC(=O)OCC2=C[C@H]3[C@@H]4C(C)(C)[C@]4(OC(C)=O)C(=O)[C@@H](C)[C@]3(O)[C@@H]3C=C(C)C(=O)[C@@]3(O)C2)ccc1O | > 10000 nM |  | 
C=C(C)[C@]12C[C@@H](C)[C@@]34O[C@](Cc5ccccc5)(O[C@@H]1[C@@H]3C=C(COC(=O)Cc1ccc(O)c(OC)c1)C[C@]1(O)C(=O)C(C)=CC41)O2 (single isomer, unassigned) [RESINIFERATOXIN] | 0.02 nM |  | Hill coefficient [8]: 2.3
COc1cc(CC(=O)OCC2=C[C@H]3[C@@H]4C(C)(C)[C@]4(OC(C)=O)[C@H](OC(=O)CC4CCCCC4)[C@@H](C)[C@]3(O)[C@@H]3C=C(C)C(=O)[C@@]3(O)C2)ccc1O | 400 nM | 1.1 | 
